Experiments:
Format in all cases: in vivo
[1] = tested on: Plutella xylostella (diamond back moth); assay: Example B5: Plutella xylostella (diamond back moth), artificial diet, 24-well, eggs; conditions: 192 h, application rate of 200 ppm, 8 days after infestation, read-out: control in at least one of the two categories (mortality or growth inhibition)
Experimental: Example B5: Plutella xylostella (Diamond Back Moth)
24-well microtiter plates with artificial diet were treated with aqueous test solutions prepared from 10′000 ppm DMSO stock solutions by pipetting. After drying, Plutella eggs were pipetted through a plastic stencil onto a gel blotting paper and the plate was closed with it. The samples were assessed for mortality and growth inhibition in comparison to untreated samples 8 days after infestation.

[2] = tested on: Chilo suppressalis (striped rice stemborer); assay: Example B4: Chilo suppressalis (striped rice stemborer), artificial diet, L2 larvae; conditions: 144 h, application rate of 200 ppm, 6 days after infestation, L2 larvae on artificial diet, read-out: control in at least one of the three categories (mortality, anti-feeding or growth inhibition)
Experimental: Example B4: Chilo suppressalis (Striped rice stemborer)
24-well microtiter plates with artificial diet were treated with aqueous test solutions prepared from 10′000 ppm DMSO stock solutions by pipetting. After drying, the plates were infested with L2 larvae (6-8 per well). The samples were assessed for mortality, anti-feeding effect, and growth inhibition in comparison to untreated samples 6 days after infestation. Control of Chilo suppressalis by a test sample is given when at least one of the categories mortality, anti-feedant effect, and growth inhibition is higher than the untreated sample.

[3] = tested on: Spodoptera littoralis (Egyptian cotton leaf worm); assay: Example B7: Spodoptera littoralis (Egyptian cotton leaf worm), sprayed cotton leaf discs, L1 larvae; conditions: foliar, 72 h, application rate of 200 ppm, 3 days after infestation, L1 larvae on cotton leaf discs, read-out: control in at least one of the three categories (mortality, anti-feeding or growth inhibition)
Experimental: Example B7: Spodoptera littoralis (Egyptian Cotton Leaf Worm)
Cotton leaf discs were placed onto agar in 24-well microtiter plates and sprayed with aqueous test solutions prepared from 10′000 ppm DMSO stock solutions. After drying the leaf discs were infested with five L1 larvae. The samples were assessed for mortality, anti-feeding effect, and growth inhibition in comparison to untreated samples 3 days after infestation. Control of Spodoptera littoralis by a test sample is given when at least one of the categories mortality, anti-feedant effect, and growth inhibition is higher than the untreated sample.

[4] = tested on: Diabrotica balteata (corn root worm); assay: Example B1: Diabrotica balteata (corn root worm), sprayed maize sprouts, L2 larvae; conditions: 96 h, application rate of 200 ppm, 4 days after infestation, L2 larvae on maize sprouts, read-out: control in at least one of the two categories (mortality or growth inhibition)
Experimental: Example B1: Diabrotica Balteata (Corn Root Worm)
Maize sprouts placed onto an agar layer in 24-well microtiter plates were treated with aqueous test solutions prepared from 10′000 ppm DMSO stock solutions by spraying. After drying, the plates were infested with L2 larvae (6 to 10 per well). The samples were assessed for mortality and growth inhibition in comparison to untreated samples 4 days after infestation.

[5] = tested on: Plutella xylostella (diamondback moth); assay: Example B10: Plutella xylostella (diamondback moth), 96-well artificial diet; conditions: 216 h, application rate of 500 ppm, 9 days after infestation, eggs/L1 larvae
Experimental: Example B10: Plutella xylostella (Diamondback Moth)
96-well microtiter plates containing artificial diet were treated with aqueous test solutions, prepared from 10′000 ppm DMSO stock solutions, by a liquid handling robot. After drying, eggs (˜30 per well) were infested onto a netted lid which was suspended above the diet. The eggs hatch and L1 larvae move down to the diet. The samples were assessed for mortality 9 days after infestation.

CC(NC(=O)c1cc(Cl)cc(C(F)(F)F)c1)c1nccnc1-c1ccc(OC(F)F)cn1 (stereo not shown) [Compound P8, 3-chloro-N-[1-[3-[5-(difluoromethoxy)-2-pyridyl]pyrazin-2-yl]ethyl]-5-(trifluoromethyl)benzamide]
≥ 80%: percent control (mortality or growth inhibition) at 200 ppm [1] | control at 200 ppm [2] | percent control (mortality, anti-feeding or growth inhibition) at 200 ppm [3] | percent control (mortality or growth inhibition) at 200 ppm [4]

CC(NC(=O)c1cc(OCC(F)(F)F)cc(C(F)(F)F)c1)c1nccnc1-c1ccc(OCC(F)(F)F)cn1 (stereo not shown) [Compound P14, 3-(2,2,2-trifluoroethoxy)-N-[1-[3-[5-(2,2,2-trifluoroethoxy)-2-pyridyl]pyrazin-2-yl]ethyl]-5-(trifluoromethyl)benzamide]
≥ 80%: percent control (mortality or growth inhibition) at 200 ppm [1] | control at 200 ppm [2] | mortality at 500 ppm [5]

CC(NC(=O)c1cc(OCC(F)F)cc(C(F)(F)F)c1)c1nccnc1-c1ccc(OC(F)F)cn1 (stereo not shown) [Compound P2, 3-(2,2-difluoroethoxy)-N-[1-[3-[5-(difluoromethoxy)-2-pyridyl]pyrazin-2-yl]ethyl]-5-(trifluoromethyl)benzamide]
≥ 80%: percent control (mortality or growth inhibition) at 200 ppm [1] | control at 200 ppm [2] | percent control (mortality, anti-feeding or growth inhibition) at 200 ppm [3]

CC(NC(=O)c1cc(OCC(F)(F)F)cc(C(F)(F)F)c1)c1nccnc1-c1ncc(OCC(F)F)cn1 (stereo not shown) [Compound P38, N-[1-[3-[5-(2,2-difluoroethoxy)pyrimidin-2-yl]pyrazin-2-yl]ethyl]-3-(2,2,2-trifluoroethoxy)-5-(trifluoromethyl)benzamide]
≥ 80%: percent control (mortality or growth inhibition) at 200 ppm [1] | control at 200 ppm [2] | percent control (mortality, anti-feeding or growth inhibition) at 200 ppm [3]

CC(NC(=O)c1cc(OC(F)F)cc(C(F)(F)F)c1)c1nccnc1-c1ccc(OC(F)F)cn1 (stereo not shown) [Compound P4, 3-(difluoromethoxy)-N-[1-[3-[5-(difluoromethoxy)-2-pyridyl]pyrazin-2-yl]ethyl]-5-(trifluoromethyl)benzamide]
≥ 80%: percent control (mortality or growth inhibition) at 200 ppm [1] | control at 200 ppm [2] | percent control (mortality, anti-feeding or growth inhibition) at 200 ppm [3] | percent control (mortality or growth inhibition) at 200 ppm [4]

CC(NC(=O)c1cc(Br)cc(C(F)(F)F)c1)c1nccnc1-c1ccc(OCC(F)(F)F)cn1 (stereo not shown) [Compound P18, 3-bromo-N-[1-[3-[5-(2,2,2-trifluoroethoxy)-2-pyridyl]pyrazin-2-yl]ethyl]-5-(trifluoromethyl)benzamide]
≥ 80%: percent control (mortality or growth inhibition) at 200 ppm [1] | control at 200 ppm [2] | percent control (mortality, anti-feeding or growth inhibition) at 200 ppm [3] | mortality at 500 ppm [5]

CC(NC(=O)c1cc(Br)cc(C(F)(F)F)c1)c1nccnc1-c1ccc(OC(F)F)cn1 (stereo not shown) [Compound P11, 3-bromo-N-[1-[3-[5-(difluoromethoxy)-2-pyridyl]pyrazin-2-yl]ethyl]-5-(trifluoromethyl)benzamide]
≥ 80%: percent control (mortality or growth inhibition) at 200 ppm [1] | control at 200 ppm [2] | percent control (mortality, anti-feeding or growth inhibition) at 200 ppm [3] | percent control (mortality or growth inhibition) at 200 ppm [4]

CC(NC(=O)c1cc(OCC(F)(F)F)cc(C(F)(F)F)c1)c1nccnc1-c1ccc(OC(F)F)cn1 (stereo not shown) [Compound P6, N-[1-[3-[5-(difluoromethoxy)-2-pyridyl]pyrazin-2-yl]ethyl]-3-(2,2,2-trifluoroethoxy)-5-(trifluoromethyl)benzamide]
≥ 80%: percent control (mortality or growth inhibition) at 200 ppm [1] | control at 200 ppm [2] | percent control (mortality, anti-feeding or growth inhibition) at 200 ppm [3] | percent control (mortality or growth inhibition) at 200 ppm [4]

CC(NC(=O)c1cc(OCC(F)F)cc(C(F)(F)F)c1)c1nccnc1-c1ccc(OCC(F)(F)F)cn1 (stereo not shown) [Compound P17, 3-(2,2-difluoroethoxy)-N-[1-[3-[5-(2,2,2-trifluoroethoxy)-2-pyridyl]pyrazin-2-yl]ethyl]-5-(trifluoromethyl)benzamide]
≥ 80%: percent control (mortality or growth inhibition) at 200 ppm [1] | percent control (mortality, anti-feeding or growth inhibition) at 200 ppm [3] | mortality at 500 ppm [5]

CC(NC(=O)c1cc(Br)cc(C(F)(F)F)c1)c1nccnc1-c1ncc(OCC(F)(F)F)cn1 (stereo not shown) [Compound P9, 3-bromo-N-[1-[3-[5-(2,2,2-trifluoroethoxy)pyrimidin-2-yl]pyrazin-2-yl]ethyl]-5-(trifluoromethyl)benzamide]
≥ 80%: percent control (mortality or growth inhibition) at 200 ppm [1] | control at 200 ppm [2] | percent control (mortality, anti-feeding or growth inhibition) at 200 ppm [3] | percent control (mortality or growth inhibition) at 200 ppm [4]

CC(NC(=O)c1cc(Br)cc(C(F)(F)F)c1)c1nccnc1-c1ccc(C#N)cn1 (stereo not shown) [Compound P10, 3-bromo-N-[1-[3-(5-cyano-2-pyridyl)pyrazin-2-yl]ethyl]-5-(trifluoromethyl)benzamide]
≥ 80%: percent control (mortality or growth inhibition) at 200 ppm [1] | control at 200 ppm [2] | percent control (mortality, anti-feeding or growth inhibition) at 200 ppm [3] | percent control (mortality or growth inhibition) at 200 ppm [4]

CC(NC(=O)c1cc(Cl)cc(C(F)(F)F)c1)c1nccnc1-c1ccc(OCC(F)F)cn1 (stereo not shown) [Compound P20, 3-chloro-N-[1-[3-[5-(2,2-difluoroethoxy)-2-pyridyl]pyrazin-2-yl]ethyl]-5-(trifluoromethyl)benzamide]
≥ 80%: percent control (mortality or growth inhibition) at 200 ppm [1] | control at 200 ppm [2] | percent control (mortality, anti-feeding or growth inhibition) at 200 ppm [3] | mortality at 500 ppm [5]

CC(NC(=O)c1cc(Cl)cc(C(F)(F)F)c1)c1nccnc1-c1ncc(OCC(F)F)cn1 (stereo not shown) [Compound P36, 3-chloro-N-[1-[3-[5-(2,2-difluoroethoxy)pyrimidin-2-yl]pyrazin-2-yl]ethyl]-5-(trifluoromethyl)benzamide]
≥ 80%: percent control (mortality or growth inhibition) at 200 ppm [1] | percent control (mortality, anti-feeding or growth inhibition) at 200 ppm [3]

CC(NC(=O)c1cc(OC(F)F)cc(C(F)(F)F)c1)c1nccnc1-c1ccc(OCC(F)(F)F)cn1 (stereo not shown) [Compound P12, 3-(difluoromethoxy)-N-[1-[3-[5-(2,2,2-trifluoroethoxy)-2-pyridyl]pyrazin-2-yl]ethyl]-5-(trifluoromethyl)benzamide]
≥ 80%: percent control (mortality or growth inhibition) at 200 ppm [1] | control at 200 ppm [2] | percent control (mortality, anti-feeding or growth inhibition) at 200 ppm [3] | mortality at 500 ppm [5]

CC(NC(=O)c1cc(OCC(F)F)cc(C(F)(F)F)c1)c1nccnc1-c1ncc(OCC(F)F)cn1 (stereo not shown) [Compound P32, 3-(2,2-difluoroethoxy)-N-[1-[3-[5-(2,2-difluoroethoxy)pyrimidin-2-yl]pyrazin-2-yl]ethyl]-5-(trifluoromethyl)benzamide]
≥ 80%: percent control (mortality or growth inhibition) at 200 ppm [1] | control at 200 ppm [2] | percent control (mortality, anti-feeding or growth inhibition) at 200 ppm [3]

CC(NC(=O)c1cc(Cl)cc(C(F)(F)F)c1)c1nccnc1-c1ccc(C#N)cn1 (stereo not shown) [Compound P7, 3-chloro-N-[1-[3-(5-cyano-2-pyridyl)pyrazin-2-yl]ethyl]-5-(trifluoromethyl)benzamide]
≥ 80%: percent control (mortality or growth inhibition) at 200 ppm [1] | control at 200 ppm [2] | percent control (mortality, anti-feeding or growth inhibition) at 200 ppm [3] | percent control (mortality or growth inhibition) at 200 ppm [4]

CC(NC(=O)c1cc(C(F)(F)F)cc(C(F)(F)F)c1)c1nccnc1-c1ccc(C#N)cn1 (stereo not shown) [Compound P31, N-[1-[3-(5-cyano-2-pyridyl)pyrazin-2-yl]ethyl]-3,5-bis(trifluoromethyl)benzamide]
≥ 80%: percent control (mortality or growth inhibition) at 200 ppm [1] | control at 200 ppm [2] | percent control (mortality, anti-feeding or growth inhibition) at 200 ppm [3] | mortality at 500 ppm [5]
